PMC10721329, “Quisinostat is a brain-penetrant radiosensitizer in glioblastoma” (JCI Insight, 2023)
Where “and” joins values, the source holds several entries; their conditions need not be identical. Equal entries are not always repeated.

What was measured:
Experiment in all cases: CellTiter-Glo dose-response cell viability assay
Assay type in all cases: cell-based, human
[1] = test system: GB71 patient-derived GSC line
Protocol: (§1) QST (JNJ-26481585) is a second-generation hydroxamic acid harboring remarkable selectivity toward class I HDACs, with a biochemical IC50 of 0.1 nM for HDAC1 ([13]). […] To determine the cytotoxic effects of QST, we performed a dose-titration cell viability assay in 7 patient-derived GSC lines (BT145, GB187, GB239, GB282, GB71, GB82, and GB126) and 1 long-term serum-grown human GBM cell line (U87). Because GBMs display a high degree of intratumoral heterogeneity, we used GSCs derived from both primary and recurrent GBMs that harbored distinct genetic mutations or aberrations, growth rates, MGMT promoter methylation status, and gene expression profiles (Supplemental Figure 1; supplemental material available online with this article; https://doi.org/10.1172/jci.insight.167081DS1). Cell lines were treated with various concentrations of QST (10–1000 nM), and cell viability was measured 3–5 days later (Figure 1, A and B). […] Treatment with QST at the IC50 induced significant inhibition of proliferation (Ki67) and an increase in programmed cell death (cleaved caspase 3) in 2 different GSC lines (Figure 1, C and D). Additional analyses confirmed that QST induces apoptosis after short-term treatment through increased staining of the apoptotic marker annexin V (Figure 2A) and cell cycle arrest (in G2- or S-phase; Figure 2B and Supplemental Figure 1B).
(§2) GSCs were seeded in laminin-coated tissue culture–treated 96-well plates (clear bottom, white plate; Corning) at a density of 1000–5000 cells per well (cell line dependent) in GSC media. U87-MG were seeded using their normal growth conditions without laminin (10% bovine calf serum in DMEM). All cells were incubated at 37°C and allowed to adhere overnight. The next day, cells were treated with incremental concentrations of QST (Selleckchem; 0, 10, 25, 50, 100, 250, 500, and 1000 nM) diluted in media. Cells treated without QST were treated with DMSO diluted in media. Following treatment with QST, cells were grown for 3 to 5 days (cell line dependent), and cell viability was measured and quantified. All cell viability measurements were performed using the CellTiter-Glo luminescent cell viability assay (Promega) following the manufacturer’s instructions. For the sulforhodamine B colorimetric assay for cytotoxicity, the protocol was performed as described elsewhere ([33]). All cell viability results represent the mean of at least 3 biological replicates, each containing 3 technical replicates.

[2] = test system: GB239 patient-derived GSC line
Protocol: as §1, §2

[3] = test system: GB126 patient-derived GSC line
Protocol: as §1, §2

[4] = test system: BT145 patient-derived GSC line
Protocol: as §1, §2

Cn1cc(CNCC2CCN(c3ncc(C(=O)NO)cn3)CC2)c2ccccc21 [QST, quisinostat]
IC50 ([1]; Homo sapiens, 3-5 days): 29 nM
viability at 0.01 µM ([1]; Homo sapiens, QST 10 nM (log[nM] 1), read-out: Cell viability (fraction of DMSO control)): 76.3%
viability at 0.025 µM ([1]; Homo sapiens, QST 25 nM (log[nM] 1.39794), read-out: Cell viability (fraction of DMSO control)): 68.5%
viability at 0.05 µM ([1]; Homo sapiens, QST 50 nM (log[nM] 1.69897), read-out: Cell viability (fraction of DMSO control)): 59.2%
viability at 0.1 µM ([1]; Homo sapiens, QST 100 nM (log[nM] 2), read-out: Cell viability (fraction of DMSO control)): 46.1%
viability at 0.25 µM ([1]; Homo sapiens, QST 250 nM (log[nM] 2.39794), read-out: Cell viability (fraction of DMSO control)): 31.5%
viability at 0.5 µM ([1]; Homo sapiens, QST 500 nM (log[nM] 2.69897), read-out: Cell viability (fraction of DMSO control)): 24.4%
viability at 1 µM ([1]; Homo sapiens, QST 1000 nM (log[nM] 3), read-out: Cell viability (fraction of DMSO control)): 21.1%
Cell viability (fraction of DMSO control) ([1]; QST 10 nM (log[nM] 1)): 0.687 and 0.6848
Cell viability (fraction of DMSO control) ([1]; QST 25 nM (log[nM] 1.39794)): 0.6366 and 0.6132
Cell viability (fraction of DMSO control) ([1]; QST 50 nM (log[nM] 1.69897)): 0.5332 and 0.5323
Cell viability (fraction of DMSO control) ([1]; QST 100 nM (log[nM] 2)): 0.436 and 0.4247
Cell viability (fraction of DMSO control) ([1]; QST 250 nM (log[nM] 2.39794)): 0.3077 and 0.3032
Cell viability (fraction of DMSO control) ([1]; QST 500 nM (log[nM] 2.69897)): 0.2399 and 0.2412
Cell viability (fraction of DMSO control) ([1]; QST 1000 nM (log[nM] 3)): 0.2213 and 0.2152
Cell viability (fraction of DMSO control) ([2]; GB239x3, QST 10 nM (log[nM] 1)): 0.8159 and 0.818
Cell viability (fraction of DMSO control) ([2]; GB239x3, QST 25 nM (log[nM] 1.39794)): 0.6846 and 0.6788
Cell viability (fraction of DMSO control) ([2]; GB239x3, QST 50 nM (log[nM] 1.69897)): 0.5694 and 0.5366
Cell viability (fraction of DMSO control) ([2]; GB239x3, QST 100 nM (log[nM] 2)): 0.3389 and 0.3234
Cell viability (fraction of DMSO control) ([2]; GB239x3, QST 250 nM (log[nM] 2.39794)): 0.1954 and 0.198
Cell viability (fraction of DMSO control) ([2]; GB239x3, QST 500 nM (log[nM] 2.69897)): 0.1408 and 0.1494
Cell viability (fraction of DMSO control) ([2]; GB239x3, QST 1000 nM (log[nM] 3)): 0.1055 and 0.1137
viability at 0.01 µM ([2]; Homo sapiens, GB239x3, QST 10 nM (log[nM] 1), read-out: Cell viability (fraction of DMSO control)): 79.7%
viability at 0.025 µM ([2]; Homo sapiens, GB239x3, QST 25 nM (log[nM] 1.39794), read-out: Cell viability (fraction of DMSO control)): 64%
viability at 0.05 µM ([2]; Homo sapiens, GB239x3, QST 50 nM (log[nM] 1.69897), read-out: Cell viability (fraction of DMSO control)): 46.2%
viability at 0.1 µM ([2]; Homo sapiens, GB239x3, QST 100 nM (log[nM] 2), read-out: Cell viability (fraction of DMSO control)): 26%
viability at 0.25 µM ([2]; Homo sapiens, GB239x3, QST 250 nM (log[nM] 2.39794), read-out: Cell viability (fraction of DMSO control)): 15.6%
viability at 0.5 µM ([2]; Homo sapiens, GB239x3, QST 500 nM (log[nM] 2.69897), read-out: Cell viability (fraction of DMSO control)): 11.2%
viability at 1 µM ([2]; Homo sapiens, GB239x3, QST 1000 nM (log[nM] 3), read-out: Cell viability (fraction of DMSO control)): 8.92%
IC50 ([2]; Homo sapiens, GB239, 3-5 days): 41 nM
Cell viability (fraction of DMSO control) ([3]; GB126 (GB126xTdT), QST 10 nM (log[nM] 1), no IR): 0.8102 and 0.8005
Cell viability (fraction of DMSO control) ([3]; GB126 (GB126xTdT), QST 25 nM (log[nM] 1.39794), no IR): 0.6353 and 0.6191
Cell viability (fraction of DMSO control) ([3]; GB126 (GB126xTdT), QST 50 nM (log[nM] 1.69897), no IR): 0.4839 and 0.5154
Cell viability (fraction of DMSO control) ([3]; GB126 (GB126xTdT), QST 100 nM (log[nM] 2), no IR): 0.3119 and 0.4774
viability at 0.01 µM ([3]; Homo sapiens, GB126 (GB126xTdT), QST 10 nM (log[nM] 1), no IR, read-out: Cell viability (fraction of DMSO control)): 79.2%
viability at 0.025 µM ([3]; Homo sapiens, GB126 (GB126xTdT), QST 25 nM (log[nM] 1.39794), no IR, read-out: Cell viability (fraction of DMSO control)): 66.8%
viability at 0.05 µM ([3]; Homo sapiens, GB126 (GB126xTdT), QST 50 nM (log[nM] 1.69897), no IR, read-out: Cell viability (fraction of DMSO control)): 57.6%
viability at 0.1 µM ([3]; Homo sapiens, GB126 (GB126xTdT), QST 100 nM (log[nM] 2), no IR, read-out: Cell viability (fraction of DMSO control)): 44.3%
IC50 ([3]; Homo sapiens, GB126, 3-5 days): 86 nM
IC50 ([4]; Homo sapiens, 3-5 days): 75 nM
viability at 0.01 µM ([4]; Homo sapiens, QST 10 nM (log[nM] 1), no IR, read-out: Cell viability (fraction of DMSO control)): 70%
viability at 0.025 µM ([4]; Homo sapiens, QST 25 nM (log[nM] 1.39794), no IR, read-out: Cell viability (fraction of DMSO control)): 64%
viability at 0.05 µM ([4]; Homo sapiens, QST 50 nM (log[nM] 1.69897), no IR, read-out: Cell viability (fraction of DMSO control)): 40%
viability at 0.1 µM ([4]; Homo sapiens, QST 100 nM (log[nM] 2), no IR, read-out: Cell viability (fraction of DMSO control)): 34.2%
viability at 0.25 µM ([4]; Homo sapiens, QST 250 nM (log[nM] 2.39794), no IR, read-out: Cell viability (fraction of DMSO control)): 25.7%
viability at 0.5 µM ([4]; Homo sapiens, QST 500 nM (log[nM] 2.69897), no IR, read-out: Cell viability (fraction of DMSO control)): 18.6%
viability at 1 µM ([4]; Homo sapiens, QST 1000 nM (log[nM] 3), no IR, read-out: Cell viability (fraction of DMSO control)): 13%
Cell viability (fraction of DMSO control) ([4]; QST 10 nM (log[nM] 1), no IR): 0.7896 and 0.7644
Cell viability (fraction of DMSO control) ([4]; QST 25 nM (log[nM] 1.39794), no IR): 0.7548 and 0.7039
